# Test results as given in ChEMBL document CHEMBL1142695, “Discovery of functionally selective 7,8,9,10-tetrahydro-7,10-ethano-1,2,4-triazolo[3,4-a]phthalazines as GABA A receptor agonists at the alpha3 subunit” (J Med Chem, 2005).
# Columns and labels:
# Assay type in all cases: cell-based
# [1] = molecular target: T1, GABA-A receptor; alpha-2/beta-3/gamma-2 (Homo sapiens, UniProt P18507+P28472+P47869); assay: Inhibition of [3H]Ro-151788 binding to recombinant human gamma-aminobutyric acid A receptor alpha-2-beta-3-gamma-2 subtype expressed in L (tk-) cells
# T1 sequence (P18507 whole entry): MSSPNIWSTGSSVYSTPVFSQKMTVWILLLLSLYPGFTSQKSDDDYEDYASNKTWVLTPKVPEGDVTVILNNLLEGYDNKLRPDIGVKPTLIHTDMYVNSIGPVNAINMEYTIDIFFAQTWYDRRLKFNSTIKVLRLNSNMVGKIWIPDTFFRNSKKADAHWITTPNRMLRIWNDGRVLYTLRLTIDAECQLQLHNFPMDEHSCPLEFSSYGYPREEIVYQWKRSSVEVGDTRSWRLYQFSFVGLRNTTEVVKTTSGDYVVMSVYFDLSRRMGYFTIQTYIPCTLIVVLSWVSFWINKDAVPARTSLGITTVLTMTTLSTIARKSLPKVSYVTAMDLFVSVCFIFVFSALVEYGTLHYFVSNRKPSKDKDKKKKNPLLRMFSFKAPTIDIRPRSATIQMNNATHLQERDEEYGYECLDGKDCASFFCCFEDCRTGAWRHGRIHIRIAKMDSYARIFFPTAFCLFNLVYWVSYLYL
# T1 sequence (P28472 whole entry): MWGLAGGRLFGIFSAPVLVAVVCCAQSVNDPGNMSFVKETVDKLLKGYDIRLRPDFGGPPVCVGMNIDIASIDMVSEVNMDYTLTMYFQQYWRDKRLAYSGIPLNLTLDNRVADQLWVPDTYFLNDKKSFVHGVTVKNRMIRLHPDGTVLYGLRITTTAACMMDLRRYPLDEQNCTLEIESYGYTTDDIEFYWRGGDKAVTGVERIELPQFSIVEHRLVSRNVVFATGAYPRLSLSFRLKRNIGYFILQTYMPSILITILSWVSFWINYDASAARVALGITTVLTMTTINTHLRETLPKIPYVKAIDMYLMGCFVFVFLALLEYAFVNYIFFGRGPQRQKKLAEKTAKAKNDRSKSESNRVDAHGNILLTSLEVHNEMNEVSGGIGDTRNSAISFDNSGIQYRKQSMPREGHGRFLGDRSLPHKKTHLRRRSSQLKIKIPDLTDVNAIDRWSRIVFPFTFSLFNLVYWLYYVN
# T1 sequence (P47869 whole entry): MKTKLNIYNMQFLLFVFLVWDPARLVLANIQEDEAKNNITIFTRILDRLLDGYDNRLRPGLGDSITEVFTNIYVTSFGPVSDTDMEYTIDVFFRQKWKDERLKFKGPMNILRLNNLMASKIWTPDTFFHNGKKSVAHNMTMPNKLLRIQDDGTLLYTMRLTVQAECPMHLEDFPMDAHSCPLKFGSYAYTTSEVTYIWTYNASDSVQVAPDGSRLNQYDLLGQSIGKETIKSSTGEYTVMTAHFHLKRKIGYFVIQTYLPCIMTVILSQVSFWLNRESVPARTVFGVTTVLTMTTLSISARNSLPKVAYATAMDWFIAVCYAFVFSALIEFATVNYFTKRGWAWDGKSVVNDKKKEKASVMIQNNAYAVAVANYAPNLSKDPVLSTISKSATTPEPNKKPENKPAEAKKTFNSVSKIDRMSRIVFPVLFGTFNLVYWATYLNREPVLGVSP
# [2] = molecular target: T2, GABA-A receptor; alpha-1/beta-3/gamma-2 (Homo sapiens, UniProt P14867+P18507+P28472); assay: Inhibition of [3H]Ro-151788 binding to recombinant human gamma-aminobutyric-acid A receptor alpha-1-beta-3-gamma-2 subtype expressed in L (tk-) cells
# T2 sequence (P14867 whole entry): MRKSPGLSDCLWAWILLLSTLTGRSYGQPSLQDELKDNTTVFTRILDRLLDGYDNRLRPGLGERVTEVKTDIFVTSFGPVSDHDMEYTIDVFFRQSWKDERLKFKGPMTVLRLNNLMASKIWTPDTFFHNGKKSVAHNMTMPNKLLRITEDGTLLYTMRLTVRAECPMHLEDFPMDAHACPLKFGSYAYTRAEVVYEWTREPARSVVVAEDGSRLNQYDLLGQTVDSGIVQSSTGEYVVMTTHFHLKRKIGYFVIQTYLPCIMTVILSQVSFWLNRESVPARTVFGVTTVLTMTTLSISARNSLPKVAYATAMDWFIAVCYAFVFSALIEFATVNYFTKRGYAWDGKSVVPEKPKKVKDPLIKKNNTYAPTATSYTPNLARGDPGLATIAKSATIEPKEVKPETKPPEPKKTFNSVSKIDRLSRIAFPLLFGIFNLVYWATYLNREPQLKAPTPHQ
# T2 sequence (P18507 whole entry): T1 sequence (P18507 whole entry)
# T2 sequence (P28472 whole entry): T1 sequence (P28472 whole entry)
# [3] = molecular target: T3, GABA-A receptor; alpha-3/beta-3/gamma-2 (Homo sapiens, UniProt P18507+P28472+P34903); assay: Inhibition of [3H]Ro-151788 binding to recombinant human gamma-aminobutyric-acid A receptor alpha-3-beta-3-gamma-2 subtype expressed in L (tk-) cells
# T3 sequence (P18507 whole entry): T1 sequence (P18507 whole entry)
# T3 sequence (P28472 whole entry): T1 sequence (P28472 whole entry)
# T3 sequence (P34903 whole entry): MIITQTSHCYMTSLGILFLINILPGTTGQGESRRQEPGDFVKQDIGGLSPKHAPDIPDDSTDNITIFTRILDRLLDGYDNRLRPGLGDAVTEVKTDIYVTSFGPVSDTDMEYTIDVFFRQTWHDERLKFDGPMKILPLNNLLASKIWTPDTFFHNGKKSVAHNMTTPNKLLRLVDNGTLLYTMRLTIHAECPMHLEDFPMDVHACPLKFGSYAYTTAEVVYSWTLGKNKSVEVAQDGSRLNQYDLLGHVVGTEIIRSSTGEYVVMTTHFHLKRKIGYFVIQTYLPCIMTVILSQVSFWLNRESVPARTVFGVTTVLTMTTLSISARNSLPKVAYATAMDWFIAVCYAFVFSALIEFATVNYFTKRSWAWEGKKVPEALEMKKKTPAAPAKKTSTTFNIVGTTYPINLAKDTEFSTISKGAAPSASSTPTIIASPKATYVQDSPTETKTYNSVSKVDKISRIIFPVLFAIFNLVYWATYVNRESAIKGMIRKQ
# [4] = molecular target: T4, GABA-A receptor; alpha-5/beta-3/gamma-2 (Homo sapiens, UniProt P18507+P28472+P31644); assay: Inhibition of [3H]Ro-151788 binding to recombinant human gamma-aminobutyric-acid A receptor alpha-5-beta-3-gamma-2 subtype expressed in L (tk-) cells
# T4 sequence (P18507 whole entry): T1 sequence (P18507 whole entry)
# T4 sequence (P28472 whole entry): T1 sequence (P28472 whole entry)
# T4 sequence (P31644 whole entry): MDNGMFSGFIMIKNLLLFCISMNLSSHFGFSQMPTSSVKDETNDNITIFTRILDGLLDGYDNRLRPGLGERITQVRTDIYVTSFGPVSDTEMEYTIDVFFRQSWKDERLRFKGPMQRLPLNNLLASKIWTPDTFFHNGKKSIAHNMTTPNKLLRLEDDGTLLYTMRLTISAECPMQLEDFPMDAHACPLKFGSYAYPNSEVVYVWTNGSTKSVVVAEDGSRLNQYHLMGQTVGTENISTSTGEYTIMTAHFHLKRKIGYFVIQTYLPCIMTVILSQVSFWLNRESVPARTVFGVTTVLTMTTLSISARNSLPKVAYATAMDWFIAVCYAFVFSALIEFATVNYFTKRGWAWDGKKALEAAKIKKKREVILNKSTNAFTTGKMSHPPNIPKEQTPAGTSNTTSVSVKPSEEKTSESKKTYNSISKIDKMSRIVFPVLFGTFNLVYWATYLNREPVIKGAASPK
Structure (SMILES),Ki [1] [nM],Ki [2] [nM],Ki [3] [nM],Ki [4] [nM]
c1ccc(COc2nn3c(-c4ccco4)nnc3c3c2C2CCC3CC2)nc1,110,270,53,5.3
c1ccc(-c2nnc3c4c(c(OCc5ncccc5OC5CCC5)nn23)C2CCC4CC2)cc1,43,32,38,4.2
c1ccc(-c2nnc3c4c(c(OCc5ccsc5)nn23)C2CCC4CC2)cc1,> 500,> 500,> 500,> 500
Cc1conc1COc1nn2c(-c3ccccc3)nnc2c2c1C1CCC2CC1,35,80,18,2.7
CSOc1ccc(COc2nn3c(-c4ccccc4)nnc3c3c2C2CCC3CC2)cc1,41,96,31,7.6
c1ccc(-c2nnc3c4c(c(OCCc5ccccn5)nn23)C2CCC4CC2)cc1,270,480,200,44
N#Cc1ccccc1COc1nn2c(-c3ccccc3)nnc2c2c1C1CCC2CC1,83,190,53,2.6
Cc1csc(-c2nnc3c4c(c(OCc5ccccn5)nn23)C2CCC4CC2)n1,140,> 1000,100,26
O=C(Nc1ccccn1)c1nn2c(-c3ccccc3)nnc2c2c1C1CCC2CC1,290,> 1000,170,40
c1ccc(-c2nnc3c4c(c(OCc5ccco5)nn23)C2CCC4CC2)cc1,> 500,> 500,> 500,> 500
CN(C)C(=O)COc1nn2c(-c3ccccc3)nnc2c2c1C1CCC2CC1,160,220,89,10
c1ccc(-c2nnc3c4c(c(COc5ccccn5)nn23)C2CCC4CC2)cc1,230,440,120,58
c1ccc(-c2nnc3c4c(c(OCc5nnc[nH]5)nn23)C2CCC4CC2)cc1,25,43,19,2.8
OCCCOc1nn2c(-c3ccccc3)nnc2c2c1C1CCC2CC1,310,650,170,42
c1ccc(-c2nnc3c4c(c(OCc5ccc6c(c5)OCO6)nn23)C2CCC4CC2)cc1,> 500,> 500,> 500,> 500
Cn1nnnc1COc1nn2c(-c3ccccc3)nnc2c2c1C1CCC2CC1,59,78,21,4.4
OCC1CCC(COc2nn3c(-c4ccccc4)nnc3c3c2C2CCC3CC2)CC1 (trans isomer),77,150,57,41
c1ccc(-c2nnc3c4c(c(OCc5cccs5)nn23)C2CCC4CC2)cc1,> 500,> 500,> 500,> 500
O=C1CCC(COc2nn3c(-c4ccccc4)nnc3c3c2C2CCC3CC2)N1 (stereo not drawn),480,730,260,59

# Other lines, results leading:
Ki [1] [nM],Ki [2] [nM],Ki [3] [nM],Ki [4] [nM],Structure (SMILES)
110,310,70,9.4,N#Cc1ccc(COc2nn3c(-c4ccccc4)nnc3c3c2C2CCC3CC2)cc1
260,750,460,100,CN1CCCC(COc2nn3c(-c4ccccc4)nnc3c3c2C2CCC3CC2)C1 (stereo not drawn)
> 1000,> 1000,> 1000,> 1000,c1ccc(COc2nn3c(N4CCOCC4)nnc3c3c2C2CCC3CC2)nc1
130,210,99,11,Cc1cc(COc2nn3c(-c4ccccc4)nnc3c3c2C2CCC3CC2)sn1
190,75,240,30,Cc1cccc(CCCOc2nn3c(-c4ccccc4)nnc3c3c2C2CCC3CC2)n1
200,480,77,9.5,c1ccc(-c2nnc3c4c(c(OCc5ccc6ccccc6n5)nn23)C2CCC4CC2)cc1
> 1000,> 1000,> 1000,> 1000,CN1CCCCC1COc1nn2c(-c3ccccc3)nnc2c2c1C1CCC2CC1 (stereo not drawn)
57,60,37,6.5,Cn1nnc(COc2nn3c(-c4ccccc4)nnc3c3c2C2CCC3CC2)n1
42,73,23,1.3,Clc1ccc(COc2nn3c(-c4ccccc4)nnc3c3c2C2CCC3CC2)nn1
110,140,66,16,Cc1nc(COc2nn3c(-c4ccccc4)nnc3c3c2C2CCC3CC2)no1
21,35,12,0.77,Cc1scnc1COc1nn2c(-c3ccccc3)nnc2c2c1C1CCC2CC1
> 500,> 500,> 500,> 500,c1ccc(-c2nnc3c4c(c(Oc5cccnc5)nn23)C2CCC4CC2)cc1
> 1000,> 1000,> 1000,170,COc1ccccc1-c1nnc2c3c(c(OCc4ccccn4)nn12)C1CCC3CC1
